Test results as given in US20080039337A1, “Method for Detection of Conformational Change of a Protein Immobilized on a Substrate” (FUENCE CO., LTD., priority 2004, published 2008).

Target: T1, Amyloid β (1-42) (Homo sapiens, UniProt P05067)
T1 construct: Amyloid β (1-42); purchased Bachem AG, Bubendorf, Switzerland (printed 'Bachem A G, Budendorf')
Assay: Detection of conformational change to β-sheet structure of amyloid β (1-42) film immobilized on a substrate, by fluorescent dye binding
Format: biochemical
Conditions: film immersed into 1 mM ZnCl2 in 10 mM Hepes pH 7.4, 0.15 M NaCl for 10 minutes; dye 1-fluoro-2,5-bis(3-carboxy-4-hyrdoxystyryl)benzene; compared with buffer only and with EDTA after ZnCl2
Procedure: Amyloid β (1-42) (Bachem A G, Budendorf, Switzerland) was dissolved in 0.1% ammonia water at the concentration of 1 mg/mL. This solution was sprayed under dry air using an electrospry device described in WO 2002-511792 or an immobilzing device described in Japanese Patent Publication No. 2003-136005. The solution was permeated through a mask with holes of 400 μm in length and 800 μm in width, and then a film having 1 μm thickness was prepared using an electrospray method (the EDS method), then protein was cross-linked at 30° C. for 5 minutes by glutaraldehyde.
The resulting film was immersed into 10 mM Hepes pH 7.4 buffer solution (hereinafter referred to as “the buffer solution”) containing 0.15 M NaCl for 10 minutes, in the presence or absence of ZnCl2, except that the EDTA sample was only reacted with 1 mM ZnCl2 and then immersed in a buffer solution containing 1 mM EDTA for 10 minutes. After that the film was immersed into a solution of 1-fluoro-2,5-bis(3-carboxy-4-hyrdoxystyryl)benzene (Dojindo Chemical Laboratory Co., Kumamoto) that binds to β-sheet structure, prepared to the final concentration of 0.01% using 50% ethanol solution. Furthermore, the film was immersed into a solution of saturated lithium carbonate, then it was lightly washed by 50% ethanol, then dried and observed under fluorescent microscope. […]

T1 sequence (P05067 672-713): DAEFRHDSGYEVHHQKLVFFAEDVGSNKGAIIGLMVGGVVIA

- fluorescent intensity of the film (relative intensity), indicating change of amyloid β to β sheet structure: the highest
SMILES: [Cl-].[Cl-].[Zn+2] [ZnCl2]
